Source: BindingDB's records for doi:10.1021/jm2017144 (Universidad De Granada, 2012)

Biological target: Superoxide dismutase [Cu-Zn], SOD1 (Homo sapiens) (UniProt P00441)
Test: Inhibition of human erythrocyte Cu-Zn SOD by NBT reduction assay

Superoxide dismutase [Cu-Zn], SOD1 (Homo sapiens), sequence (P00441 whole entry, looked up): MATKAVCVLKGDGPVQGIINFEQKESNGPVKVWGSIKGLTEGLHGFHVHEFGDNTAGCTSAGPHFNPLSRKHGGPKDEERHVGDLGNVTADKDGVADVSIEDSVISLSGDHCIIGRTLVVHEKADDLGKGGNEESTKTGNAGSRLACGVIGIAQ

IC50 [µM] | Structure (SMILES)
274 | c1c2n[nH]c1CNCCN1CCNCc3cc(n[nH]3)CNCCN(CCNC2)CCNCc2cc([nH]n2)CNCC1
96.6 | Cn1nc2cc1CNCCNCCNCc1cc(n(C)n1)CNCCNCCNC2
155 | c1ccc(Cn2nc3cc2CNCCNCCNCc2cc(n(Cc4ccccc4)n2)CNCCNCCNC3)cc1
89.2 | CCCCCCCCN1CCNCc2cc([nH]n2)CNCCN(CCCCCCCC)CCNCc2cc(n[nH]2)CNCC1
